Source: patent US6506789B2, “Methods for the treatment of itching comprising administering PGD2 receptor antagonist” (Shionogi & Co., Ltd., priority 1998, dated 2003)
Marks after values point to notes of the source that are not given here.

How the values were obtained:
[1] = biological target: T1, PGD2 receptor (Homo sapiens, UniProt Q13258); experiment: Binding to PGD2 receptor ([3H]PGD2, human platelet membrane fraction); settings: 5 nM [3H]PGD2, 4° C., 90 min, read-out: IC50 (concentration required for 50% inhibition of [3H]PGD2 binding)
T1 construct: The platelets mere homogenized using a homogenizer (Ultra-Turrax) followed by centrifugation 3 times at 20,000 rpm, 10 min at 4° C. to obtain a platelet membrane fraction; from tissue; host or cells: human platelets from venous blood of healthy volunteers (membrane fraction)
T1 sequence (Q13258 1-359): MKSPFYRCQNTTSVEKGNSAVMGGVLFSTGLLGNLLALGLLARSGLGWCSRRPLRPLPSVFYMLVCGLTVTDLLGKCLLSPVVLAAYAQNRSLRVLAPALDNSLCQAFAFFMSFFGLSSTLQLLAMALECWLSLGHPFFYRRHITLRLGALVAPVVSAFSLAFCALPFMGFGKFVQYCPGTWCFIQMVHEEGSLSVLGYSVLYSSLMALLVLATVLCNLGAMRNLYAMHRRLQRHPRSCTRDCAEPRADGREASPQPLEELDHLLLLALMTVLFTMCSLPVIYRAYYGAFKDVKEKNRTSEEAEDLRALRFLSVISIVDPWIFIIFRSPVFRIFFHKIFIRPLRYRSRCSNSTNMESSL
Procedure: (1) Preparation of Human Platelet Membrane Fraction
Blood sample was obtained using a plastic syringe containing 3.8% sodium citrate from the vein of healthy volunteers (adult male and female), put into a plastic test tube and mixed gently by rotation. The sample was then centrifuged at 1800 rpm, 10 min at room temperature and the supernatant containing PRP (platelet-rich plasma) was collected. The PRP was re-centrifuged at 2300 rpm, 22 min at room temperature to obtain platelets. The platelets mere homogenized using a homogenizer (Ultra-Turrax) followed by centrifugation 3 times at 20,000 rpm, 10 min at 4° C. to obtain a platelet membrane fraction. After protein determination, the membrane fraction was adjusted to 2 mg/ml and preserved in a refrigerator at −80° C. until use.
(2) Binding to PGD2 Receptor
To a binding-reaction solution (50 mM Tris/HCl, pH 7.4, 5 mM MgCl2) (0.2 ml) were added the human platelet membrane fraction (0.1 mg) and 5 nM [^3H]PGD2 (115 Ci/mmol). After reacting at 4° C. for 90 min, the mixture was filtered through a glass fiber filter paper and washed several times with cooled saline, to measure the radioactivity retained on the filter paper. The specific binding was calculated by subtracting the non-specific binding (the binding in the presence of 10 μM PGD2) from the total binding. The inhibitory activity of each compound was expressed as the concentration required for 50% inhibition (IC50), which was determined by depicting a substitution curve by plotting the binding ratio (%) in the presence of each compound, where the binding ratio in the absence of a test compound is 100%.

[2] = test system: PGD2-induced itching; settings: guinea pig; J. Pharmacol. Exp. Ther., 279, 137-142, 1996; cited from earlier work
[3] = test system: itching caused by antigens; settings: J. Pharmacol. Exp. Ther., 279, 137-142, 1996; cited from earlier work
[4] = test system: Antigen-induced scratching behavior; experiment: Mouse pruritus model: antigen-induced scratching behavior; assay type: in vivo; settings: female C57BL mice, observed 15 minutes, n = 7, control 51.6 ± 5.3
Procedure: Investigation on Itch-Related Scratching Behavior in Mouse Pruritus Model: Effect on Antigen-Induced Scratching Behavior 50 μl of diluted anti-benzylpenicilloyl (BPO) IgE monoclonal antibody was intradermally injected to the rostral part of the back skin of female C57BL (Table 17, 8-12 weeks of age, Charles River Japan Inc.) or male DS-Nh (Table 18, 7-8 weeks of age, Aburahi Laboratories, Shionogi & Co., Ltd.) mice. Twenty-four hours later, scratching behavior was induced by intravenously injection of physiological saline containing 1 mg of BPO-guinea pig serum albumin. […] In Table 17, the compound was treated in the same manner described in above 1). In Table 18, the compound were dissolved in physiological saline and intraperitoneally injected 30 minutes before antigen challenge. *: P<0.05, **: P<0.01 versus control (Dunnett's test).

[5] = test system: Compound 48/80-induced scratching behavior; experiment: Mouse pruritus model: compound 48/80-induced scratching behavior; assay type: in vivo
Procedure: Investigation on Itch-Related Scratching Behavior in Mouse Pruritus Model: Effect on Compound 48/80-Induced Scratching Behavior Compound 48/80 (10 μg/site, Sigma), a non-immunological mast cell activator, was dissolved in physiological saline and subcutaneously injected into the rostral part of the back of female C57BL mice (8-12 weeks of age, Charles River Japan Inc.). […] Mice usually scratched several times successively in one behavior and a series of scratching was counted as one incidence. Compound Treatment Compound (IA-a-5), suspended in 0.5% methylcellulose, was orally administered 1 hour before the injection of compound 48/80 at a dose of 300 mg/kg. As a control, mice were treated with 0.5% methlycellulose. Results were shown in Table 16. *: P<0.05 versus control (Wilcoxon test).

| Compound | IC50 [1] | also measured |
| --- | --- | --- |
| CC1(C)[C@H]2C[C@H](C/C=C/CCCC(=O)O)[C@@H](NC(=O)c3csc4ccc(O)cc34)[C@@H]1C2 (single isomer, unassigned) [IA-a-18] | 1.2 nM | – |
| O=C(O)CCCCCCC1C(=O)N(Cc2ccccc2)C(=O)N1NCC(O)C1CCCCC1 (stereo not drawn) [BWA868C] | – | inhibition of itching induced by instillation of PGD2 [2]: inhibited; inhibition of itching caused by antigens [3]: can not inhibit |
| CC1(C)[C@H]2C[C@H](C/C=C\CCCC(=O)O)[C@@H](NC(=O)c3csc4ccc(O)cc34)[C@@H]1C2 [IA-a-5, (5Z)-7-[(1R,2R,3S,5S)-2-(5-hydroxybenzo[b]thiophen-3-yl-carbonylamino)-6,6-dimethylbicyclo[3.1.1]hept-3-yl]-5-heptenoic acid] | – | Mean ± S.E. (Number of scratching) ([4]; 100 mg/kg orally): 48.4 ± 12.4; Mean ± S.E. (Number of scratching) ([4]; 300 mg/kg orally): 19.6 ± 6.5*; scratching caused by skin itching derived from the activation of mast cell, compared with the control group ([5]; Experiment 2, summary in words): reduced; Mean ± S.E. (Number of scratching) ([5]; female C57BL mice, 300 mg/kg orally 1 hour before compound 48/80, observed 30 minutes, n = 10, control 122.2 ± 12.7): 81.8 ± 17.9* |
| CC1(C)[C@H]2C[C@H](C/C=C\CCCC(=O)O)[C@@H](NC(=O)c3csc4ccc(F)cc34)[C@@H]1C2 [IA-a-11] | 0.27 nM | – |
| CC1(C)[C@H]2C[C@H](C/C=C/CCCC(=O)O)[C@@H](NC(=O)c3csc4ccc(O)cc34)[C@@H]1C2 [IA-a-17, (5E)-7-[(1R,2R,3S,5S)-2-(5-hydroxybenzo[b]thiophen-3-yl-carbonylamino)-6,6-dimethylbicyclo[3.1.1]hept-3-yl]-5-heptenoic Acid] | 32 nM | – |
| CC1(C)[C@H]2C[C@@H](C/C=C\CCCC(=O)O)[C@@H](NC(=O)c3csc4ccc(O)cc34)[C@@H]1C2 [IA-c-1] | 28 nM | – |
| CC1(C)[C@H]2C[C@@H](C/C=C/CCCC(=O)O)[C@@H](NC(=O)c3csc4ccc(O)cc34)[C@@H]1C2 [IA-c-2] | 1 nM | – |
| CC1(C)[C@H]2C[C@H](NC(=O)c3csc4ccc(F)cc34)[C@@H](C/C=C\CCCC(=O)O)[C@@H]1C2 [IB-a′-2] | 37 nM | – |
